Results on eleven compounds are retold here after patent US20140094456A1, “ANTI-FIBROTIC PYRIDINONES” (InterMune, Inc., priority 2012, published 2014).

Each structure is given as a SMILES string.

One test deals with endothelin-1 (ET-1) production. Nature of the test: ET-1 assay: inhibitory effect on TGF-b induced endothelin-1 production in fibroblasts (ELISA). The test is classed as cell-based, human. Particulars: Homo sapiens, Fibroblast, inhibition of stimulant (TGFb, serum, LPA etc) induced ET-1 production in fibroblasts. As for the experimental part:
Assay of Inhibitory Effect on TGF-b Induced Endothelin-1 Production
Fibroblasts (primary human lung and dermal, HFL-1, 3T3 etc) are seeded in 96-well plates at ˜15000 cells/well and serum starved for 0-48 hours. After media exchange, compounds serially diluted in DMSO are added to the cells. After a brief incubation of ˜30 min, stimulants (TGFb, serum, LPA etc) are added followed by further incubation for 16-48 hours. Media is then harvested and stored frozen in plate format for later endothelin-1 (ET-1) determination by ELISA. Toxicity measurements are made using the ATPlite kit (Perkin-Elmer). ET-1 is quantified using an ELISA kit (R&D Systems). The amount of ET-1 produced in the assay wells are back-calculated using the ELISA standard. The ability of a compound to inhibit ET-1 production is typically analyzed by fitting dose-response curves to a 4-parameter logistic function to obtain an EC50 value. A measure of cytotoxicity (CC50) is likewise reported from the same experiment using the ATPlite data.
Compounds of some embodiments were prepared according to synthetic methods described herein and assay data obtained for EC50 against ET-1. The assay data obtained is presented in Table 2, in which A=less than 50 μM, B=greater than or equal to 50 μM and less than or equal to 200 μM; and C=greater than 200 μM.
Background: An ELISA detects its analyte on a solid surface through an enzyme-linked reagent.
The term EC50 denotes the midpoint of the concentration-response curve. `Cc1cc(=O)n(-c2ccc(C(F)(F)F)cc2)cc1-c1ccccc1` [Compound 170] came in with a concentration for a half-maximal effect (EC50) below 50 µM.

As to `CC(=O)c1ccc(=O)n(-c2ccc(OC(C)C)cc2)c1` [Compound 10], the EC50 was above 200 µM.

As to `COCCOCCOCCOc1cccc(-n2cc(C)ccc2=O)c1` [Compound 22], the EC50 was above 200 µM.

Consider `COCCOc1ccc(Oc2cc(=O)n(-c3ccc(OC(F)(F)F)cc3)cc2-c2cnn(C)c2)cc1` [Compound 533], for which the 50% effective concentration (EC50) was 50 to 200 µM.

`CCCCOC(=O)Nc1cc(=O)n(-c2ccc(OC(F)(F)F)cc2)cc1-c1cnn(C)c1` [Compound 136] gave an EC50 of 50 to 200 µM.

Take `CCOC(=O)Nc1cc(=O)n(-c2ccc(OC(F)(F)F)cc2)cc1-c1ccc(F)cc1` [Compound 114]: the concentration for a half-maximal effect (EC50) is above 200 µM.

In the case of `CN1C(=O)COc2c(-c3cnn(C)c3)cn(-c3ccc(OC(F)(F)F)cc3)c(=O)c21` [Compound 396], the EC50 was above 200 µM.

`COCCOCCOCCOc1ccc(-n2cc(C)ccc2=O)cc1` [Compound 21] returned an EC50 above 200 µM.

The compound `O=c1c2c(ncn2C2CC2)c(-c2cn[nH]c2)cn1-c1ccc(OC(F)(F)F)cc1` [Compound 650] yielded an EC50 below 50 µM.

The compound `Cn1cc(-c2cn(-c3ccc(OC(F)(F)F)cc3)c(=O)cc2NC(=O)OCc2ccccc2)cn1` [Compound 140] returned an EC50 of 50 to 200 µM.

The test is the same for the next values; noted with them: inhibition of stimulant (TGFb, serum, LPA etc) induced ET-1 production in fibroblasts.
`CC(C)Oc1ccc(-n2cc(-c3ccc(F)cc3)ccc2=O)cc1` [Compound 288] came in with an EC50 of 50 to 200 µM.

Another test concerns Fibroblasts (primary human lung and dermal, HFL-1, 3T3 etc). Nature of the test: Cell proliferation assay: inhibitory effect on cell proliferation (BrdU incorporation) in fibroblasts. The test is classed as cell-based. Particulars: HFL1, 50% inhibition of stimulant (LPA, TGFb, serum etc) induced increase of BrdU incorporation in fibroblasts. As for the experimental part: Assay of Inhibitory Effect on Cell Proliferation (BrdU Incorporation)
Fibroblasts (primary human lung and dermal, HFL-1, 3T3 etc) were plated on a 96-well plate and serum starved for 24-48 hours. The media were then exchanged for media containing stimulants (LPA, TGFb, serum etc) and cultured further for 16-24 hours before BrdU addition. After culturing for another 8 hours, cells were washed with PBS and the amount of BrdU incorporated into the cells was assayed by absorbance at 450 nm using the Cell proliferation ELISA system (RPN250, Amersham LIFE SCIENCE). The difference between the amount of BrdU incorporated in the stimulant-added well and the amount of BrdU incorporated in the well containing no stimulant represented the amount of BrdU incorporation accelerated by stimulant. The increase of BrdU incorporation without the addition of test compounds was set as 100% and the concentration of compound with 50% inhibition in the increase of BrdU incorporation (IC50 value) was determined. The test compounds were added 0-30 min before stimulant addition.
Compounds of some embodiments were prepared according to synthetic methods described herein and assay data obtained for IC50 for BrdU inhibition. The assay data obtained is presented in Table 3, in which A=less than 50 μM, B=greater than or equal to 50 μM and less than or equal to 200 μM; and C=greater than 200 μM.
A general note: Incorporation of labelled thymidine or its analogues reports DNA synthesis.
What is called IC50 is the concentration at which inhibition is half-maximal. Take `COCCOCCOCCOc1ccc(-n2cc(C)ccc2=O)cc1` [Compound 21]: the IC50 was above 200 µM.

Regarding `O=c1c2c(ncn2C2CC2)c(-c2cn[nH]c2)cn1-c1ccc(OC(F)(F)F)cc1` [Compound 650], the IC50 was below 50 µM.
